Measured values as given in ChEMBL document CHEMBL1932950, “Inhibitory constituents of Nardostachys chinensis on nitric oxide production in RAW 264.7 macrophages” (Bioorg Med Chem Lett, 2012).

What was measured:
[1] = system: RAW264.7; experiment: Cytotoxicity against mouse RAW264.7 cells by CCK assay; format: cell-based
[2] = system: RAW264.7; experiment: Antiinflammatory activity in mouse RAW264.7 cells assessed as inhibition of LPS-induced NO production after 24 hrs by Griess method; format: functional, cell-based; details: for IC50: RAW264.7, 24 h

| Structure (SMILES) | IC50 [2] [µM] | Activity [1] | inhibition [2] |
| --- | --- | --- | --- |
| C[C@@H]1C[C@@H](O)C=C2C(=O)C[C@H]3OOC(C)(C)[C@H]3[C@]21C [KANSHONE B] | 11.5 | Non-toxic | Dose-dependent effect |
| COc1cc([C@@H]2OC[C@@H]3[C@H]2CO[C@H]3c2ccc(O)c(OC)c2)ccc1O [(+)-PINORESINOL] | 33.5 |  |  |
| C[C@@H]1CCC=C2C(=O)C=C[C@@H](O)[C@]21C | 8.4 | Non-toxic | Dose-dependent effect |
| C[C@@H]1CCC=C2C(=O)CC(=O)C[C@]21C | > 50 | Non-toxic |  |
| O=C(O)/C=C/c1ccc(O)cc1 [COUMARIC ACID] | > 50 | Non-toxic |  |
| C[C@@H]1CCC=C2C(=O)C[C@H]3OOC(C)(C)[C@H]3[C@]21C [NARDOSINONE] | 11.1 | Non-toxic | Dose-dependent effect |
| COc1cc([C@H]2OC[C@H]3[C@@H]2CO[C@@H]3c2ccc(O)c(OC)c2)ccc1O [(+)-PINORESINOL] |  | Non-toxic |  |

Now from value to compound, other results behind:

| IC50 [2] [µM] | Structure (SMILES) | Activity [1] | inhibition [2] |
| --- | --- | --- | --- |
| > 50 | COc1ccc(/C=C/C(=O)O)cc1O [ISOFERULIC ACID] | Non-toxic |  |
| > 50 | COc1cc(C2OC2CO)ccc1O (centres undefined) [EPOXYCONIFERYL ALCOHOL] | Non-toxic |  |
| > 50 | C[C@@H]1CC(=O)C=C2[C@H](O)C[C@@H]3[C@@H](C3(C)C)[C@]21C [DEBILON] | Non-toxic |  |
| > 50 | C[C@H]1[C@H](C)CC[C@]2(C(=O)O)CC[C@]3(C)C(=CC[C@@H]4[C@@]5(C)CC[C@H](O)C(C)(C)[C@@H]5CC[C@]43C)[C@H]12 [URSOLIC ACID] | Non-toxic |  |
| 4.6 | C[C@@H]1C[C@H](O)C=C2C(=O)C=C[C@@H](O)[C@]21C [NARCHINOL B] | Non-toxic | Dose-dependent effect |
| 21.6 | C[C@@H]1C[C@@H](O)C=C2C(=O)C=C[C@@H](O)[C@]21C [NARCHINOL C] | Non-toxic | Dose-dependent effect |
